Experimental data as given in patent US20260365682A1, “MODULATORS OF TNF-ALPHA ACTIVITY” (Forward Therapeutics, Inc., priority 2022, published 2026).
pIC50: −log10 of the molar value.

The molecules below were run against T1, TNF-α (Homo sapiens, UniProt P01375) (assay: TNF-α Induced HEK Blue Cellular Assay (secreted alkaline phosphatase expression, QUANTI-Blue)). Conditions: HEK Blue TNFα reporter cells; TNF-α 100 μg/ml; 24 hrs at 37° C.; inhibition of secreted alkaline phosphatase; read-out: IC50 value.
T1 construct: purchased R&D 210-TA-020/CF
T1 sequence (P01375 77-233 limits assumed): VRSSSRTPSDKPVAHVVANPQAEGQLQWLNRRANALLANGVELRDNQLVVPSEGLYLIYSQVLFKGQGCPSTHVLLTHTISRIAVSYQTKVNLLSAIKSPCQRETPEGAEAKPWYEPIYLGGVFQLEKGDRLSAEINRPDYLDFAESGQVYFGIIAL
Format: cell-based
Experimental: TNF-α Induced HEK Blue Cellular Assay
Test articles were diluted in DMSO and serially diluted into 384 well assay plate (Corning 3765), at final concentrations ranging from […] to 0.5 nM. HEK Blue™ TNFα reporter cells were added at a final density of 10,000 cell per well in assay media [DMEM (Gibco, cat #21063-029), 10% fetal bovine serum (ExcelBio, cat #FND500), 1% Penicillin-Streptomycin (Solarbio, cat #P1400-100]. TNF-α (R&D 210-TA-020/CF) was then added to the assay plate at a final concentration of […]. This plate was then incubated for 24 hrs at 37° C. and 5% CO2. Secreted alkaline phosphatase expression was then measured using QUANTI-Blue™ (Invivogen), according to manufacturer instructions and read on an Envision microplate reader at 620 nm.
Inhibition data for test compound over a range of concentration was plotted as percentage inhibition of the test compound (100%=maximum inhibition). IC50 values were determined after correcting for background [(sample read-mean of low control)/(mean of high control-mean of low control)] whereby the low control is DMSO without stimulation and high control is DMSO with stimulation. The IC50 is defined as the concentration of test compound which produces 50% inhibition and was quantified using the 4 parameter logistic equation to fit the data.

Row | pIC50 | SMILES
1 | > 7.00 | [2H]C([2H])([2H])N1C(=O)c2cccc(OC(F)F)c2[C@H]2C[C@@H]1c1nc3ccc(C#CCCC4CC4)cc3n12 (single isomer, unassigned) [Example 137]
2 | > 7.00 | [2H]C([2H])([2H])N1C(=O)c2cccc(OC(F)F)c2[C@H]2C[C@@H]1c1nc3ccc(C#CCC(C)O)cc3n12 (single isomer, unassigned) [Example 139, (7R,14R)-1-(difluoromethoxy)-11-((R or S)-4-hydroxypent-1-yn-1-yl)-6-(methyl-d3)-6,7-dihydro-7,14-methanobenzo[f]benzo[4,5]imidazo[1,2-a][1,4]diazocin-5(14H)-one]
3 | > 7.00 | [2H]C([2H])([2H])N1C(=O)c2cccc(OC(F)F)c2[C@H]2C[C@@H]1c1nc3ccc(C#CCC(C)O)cc3n12 (single isomer, unassigned) [Example 140, (7R,14R)-1-(difluoromethoxy)-11-((S or R)-4-hydroxypent-1-yn-1-yl)-6-(methyl-d3)-6,7-dihydro-7,14-methanobenzo[f]benzo[4,5]imidazo[1,2-a][1,4]diazocin-5(14H)-one]
4 | > 7.00 | [2H]C([2H])([2H])N1C(=O)c2cccc(OC(F)F)c2[C@H]2C[C@@H]1c1nc3ccc(C#CCC(C)OC)cc3n12 (single isomer, unassigned) [Example 148, (7R,14R)-1-(difluoromethoxy)-11-((R or S)-4-methoxypent-1-yn-1-yl)-6-(methyl-d3)-6,7-dihydro-7,14-methanobenzo[f]benzo[4,5]imidazo[1,2-a][1,4]diazocin-5(14H)-one]
5 | > 7.00 | [2H]C([2H])([2H])N1C(=O)c2cccc(OC(F)F)c2[C@H]2C[C@@H]1c1nc3ccc(C#CCC(C)OC)cc3n12 (single isomer, unassigned) [Example 149, (7R,14R)-1-(difluoromethoxy)-11-((S or R)-4-methoxypent-1-yn-1-yl)-6-(methyl-d3)-6,7-dihydro-7,14-methanobenzo[f]benzo[4,5]imidazo[1,2-a][1,4]diazocin-5(14H)-one]
6 | 6.00 to 7.00 | [2H]C([2H])([2H])N1C(=O)c2cccc(OC(F)F)c2[C@H]2C[C@@H]1c1nc3ccc(C#CC(O)C(F)(F)F)cc3n12 (single isomer, unassigned) [Example 199, (7R,14R)-1-(difluoromethoxy)-6-(methyl-d3)-11-((R or S)-4,4,4-trifluoro-3-hydroxybut-1-yn-1-yl)-6,7-dihydro-7,14-methanobenzo[f]benzo[4,5]imidazo[1,2-a][1,4]diazocin-5(14H)-one]
7 | 6.00 to 7.00 | [2H]C([2H])([2H])N1C(=O)c2cccc(OC(F)F)c2[C@H]2C[C@@H]1c1nc3ccc(C#CC(O)C(F)(F)F)cc3n12 (single isomer, unassigned) [Example 200, (7R,14R)-1-(difluoromethoxy)-6-(methyl-d3)-11-((S or R)-4,4,4-trifluoro-3-hydroxybut-1-yn-1-yl)-6,7-dihydro-7,14-methanobenzo[f]benzo[4,5]imidazo[1,2-a][1,4]diazocin-5(14H)-one]
8 | 4.52 to 5.00 | [2H]C([2H])([2H])N1C(=O)c2cccc(OC(F)F)c2[C@H]2C[C@@H]1c1nc3ccc(C#CC(O)CC)cc3n12 (single isomer, unassigned) [Example 208, (7R,14R)-1-(difluoromethoxy)-11-((R or S)-3-hydroxypent-1-yn-1-yl)-6-(methyl-d3)-6,7-dihydro-7,14-methanobenzo[f]benzo[4,5]imidazo[1,2-a][1,4]diazocin-5(14H)-one]
9 | 4.52 to 5.00 | [2H]C([2H])([2H])N1C(=O)c2cccc(OC(F)F)c2[C@H]2C[C@@H]1c1nc3ccc(C#CC(O)CC)cc3n12 (single isomer, unassigned) [Example 209, (7R,14R)-1-(difluoromethoxy)-11-((S or R)-3-hydroxypent-1-yn-1-yl)-6-(methyl-d3)-6,7-dihydro-7,14-methanobenzo[f]benzo[4,5]imidazo[1,2-a][1,4]diazocin-5(14H)-one]
10 | 4.52 to 5.00 | [2H]C([2H])([2H])N1C(=O)c2cccc(OC(F)F)c2[C@H]2C[C@@H]1c1nc3ccc(C#CC(N)CC(C)(C)O)cc3n12 (single isomer, unassigned) [Example 216, (7R,14R)-11-((S or R)-3-amino-5-hydroxy-5-methylhex-1-yn-1-yl)-1-(difluoromethoxy)-6-(methyl-d3)-6,7-dihydro-7,14-methanobenzo[f]benzo[4,5]imidazo[1,2-a][1,4]diazocin-5(14H)-one]
11 | 4.52 to 5.00 | [2H]C([2H])([2H])N1C(=O)c2cccc(OC(F)F)c2[C@H]2C[C@@H]1c1nc3ccc(C#CC(N)CC(C)(C)O)cc3n12 (single isomer, unassigned) [Example 217, (7R,14R)-11-((R or S)-3-amino-5-hydroxy-5-methylhex-1-yn-1-yl)-1-(difluoromethoxy)-6-(methyl-d3)-6,7-dihydro-7,14-methanobenzo[f]benzo[4,5]imidazo[1,2-a][1,4]diazocin-5(14H)-one]
12 | 6.00 to 7.00 | [2H]C([2H])([2H])N1C(=O)c2cccc(OC(F)F)c2[C@H]2C[C@@H]1c1nc3ccc(C#CC(O)CC(C)(C)O)cc3n12 (single isomer, unassigned) [Example 221, (7R,14R)-1-(difluoromethoxy)-11-((S or R)-3,5-dihydroxy-5-methylhex-1-yn-1-yl)-6-(methyl-d3)-6,7-dihydro-7,14-methanobenzo[f]benzo[4,5]imidazo[1,2-a][1,4]diazocin-5(14H)-one]
13 | > 7.00 | [2H]C([2H])([2H])N1C(=O)c2cccc(OC(F)F)c2[C@H]2C[C@@H]1c1nc3ccc(C#CC(O)CC(C)(C)O)cc3n12 (single isomer, unassigned) [Example 222, (7R,14R)-1-(difluoromethoxy)-11-((R or S)-3,5-dihydroxy-5-methylhex-1-yn-1-yl)-6-(methyl-d3)-6,7-dihydro-7,14-methanobenzo[f]benzo[4,5]imidazo[1,2-a][1,4]diazocin-5(14H)-one]
14 | > 7.00 | [2H]C([2H])([2H])N1C(=O)c2cccc(OC(F)F)c2[C@H]2C[C@@H]1c1nc3ccc(C#CC(C)CCO)cc3n12 (single isomer, unassigned) [Example 239, (7R,14R)-1-(difluoromethoxy)-11-((S or R)-5-hydroxy-3-methylpent-1-yn-1-yl)-6-(methyl-d3)-6,7-dihydro-7,14-methanobenzo[f]benzo[4,5]imidazo[1,2-a][1,4]diazocin-5(14H)-one]
15 | > 7.00 | [2H]C([2H])([2H])N1C(=O)c2cccc(OC(F)F)c2[C@H]2C[C@@H]1c1nc3ccc(C#CC(C)CCO)cc3n12 (single isomer, unassigned) [Example 240, (7R,14R)-1-(difluoromethoxy)-11-((R or S)-5-hydroxy-3-methylpent-1-yn-1-yl)-6-(methyl-d3)-6,7-dihydro-7,14-methanobenzo[f]benzo[4,5]imidazo[1,2-a][1,4]diazocin-5(14H)-one]
16 | > 7.00 | [2H]C([2H])([2H])N1C(=O)c2cccc(OC(F)F)c2[C@H]2C[C@@H]1c1nc3ccc(C#CCC(O)C(C)O)cc3n12 (single isomer, unassigned) [Example 243, (7R,14R)-1-(difluoromethoxy)-11-((4R or 4S,5S or 5R)-4,5-dihydroxyhex-1-yn-1-yl)-6-(methyl-d3)-6,7-dihydro-7,14-methanobenzo[f]benzo[4,5]imidazo[1,2-a][1,4]diazocin-5(14H)-one]
